According to BindingDB's records for patent US10669227 (THE RESEARCH FOUNDATION OF STATE UNIVERSITY OF NEW YORK, 2020):

Biological target: 72 kDa type IV collagenase (Homo sapiens, UniProt P08253)
Assay: Inhibition of MMPs
Source text: However, it should be noted that excessive inhibition of MMP activity may not be desirable therapeutically because a minimal, or basal, level of MMPs may be necessary for optimal defense of the host.

Sequence of 72 kDa type IV collagenase (P08253 whole entry): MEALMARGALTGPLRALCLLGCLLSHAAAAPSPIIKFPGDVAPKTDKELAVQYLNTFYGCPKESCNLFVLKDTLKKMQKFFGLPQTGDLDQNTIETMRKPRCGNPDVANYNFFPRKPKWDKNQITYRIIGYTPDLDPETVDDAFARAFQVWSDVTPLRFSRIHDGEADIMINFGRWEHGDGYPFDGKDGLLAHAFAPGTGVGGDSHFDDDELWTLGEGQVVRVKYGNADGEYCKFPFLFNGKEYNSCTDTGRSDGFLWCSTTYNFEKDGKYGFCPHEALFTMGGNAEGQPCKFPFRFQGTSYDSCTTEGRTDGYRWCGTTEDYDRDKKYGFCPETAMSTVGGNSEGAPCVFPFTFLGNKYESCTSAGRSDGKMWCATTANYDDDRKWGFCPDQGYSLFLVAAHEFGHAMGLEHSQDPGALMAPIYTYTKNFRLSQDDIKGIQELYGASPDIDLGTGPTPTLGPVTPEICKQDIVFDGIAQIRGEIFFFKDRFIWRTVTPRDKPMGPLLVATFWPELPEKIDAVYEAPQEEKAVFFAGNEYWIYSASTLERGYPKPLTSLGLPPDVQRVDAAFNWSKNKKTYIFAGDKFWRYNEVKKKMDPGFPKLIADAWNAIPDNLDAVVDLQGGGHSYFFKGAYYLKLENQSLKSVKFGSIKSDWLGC

IC50: 85 µM
Compound: COc1cc(/C=C/C(=O)C(C(=O)/C=C/c2ccc(O)c(CO)c2)C(=O)Nc2ccccc2)ccc1O (stereo unspecified) [US10669227, Compound 6]
